# Test results published in BindingDB's records for doi:10.1021/acsmedchemlett.7b00188 (Wuxi Apptec (Shanghai), 2017).
# Assay: Inhibition of Enterovirus 71 Shenzhen/120F1/09 capsid infected in human RD cells assessed as reduction in virus-induced cell death after 72 hrs by CCK-8 assay
row,SMILES,EC50
1,Nc1cc(N2CCN(CCCCCOc3ccc(-c4ccc(Cl)cc4)cc3)S2(=O)=O)ccn1,12 nM
2,O=C1N(CCCCC2CCc3cc(-c4ccc(Cl)cc4)ccc3O2)CCN1c1ccncc1 (configuration not stated),48 nM
3,O=S1(=O)N(CCCCCOc2ccc(-c3ccc(Cl)cc3)cc2)CCN1c1ccncc1,110 nM
4,S=C1N(CCCCCOc2ccc(-c3ccc(Cl)cc3)cc2)CCN1c1ccncc1,2800 nM
5,O=C1CN(CCCCCOc2ccc(-c3ccc(Cl)cc3)cc2)CCN1c1ccncc1,1200 nM
6,CCO/N=C1\CCc2cc(OCCCCCN3CCN(c4ccnc(N)c4)S3(=O)=O)ccc21,4 nM
7,CCO/N=C(\C)c1ccc(OCCCCCN2CCN(c3ccnc(N)c3)S2(=O)=O)cc1,600 nM
8,CCO/N=C/c1ccc(OCCCCCN2CCN(c3ccnc(N)c3)S2(=O)=O)cc1,0.9 nM
9,O=C1N(CCCCc2nc3cc(-c4ccc(Cl)cc4)ccc3o2)CCN1c1ccncc1,1100 nM
10,O=C1CC(CCCCN2CCN(c3ccncc3)C2=O)Oc2ccc(-c3ccc(Cl)cc3)cc21 (configuration not stated),540 nM
11,CCn1ccc2cc(OCCCCCN3CCN(c4ccnc(N)c4)S3(=O)=O)ccc21,> 1000 nM
12,CCc1noc2cc(OCCCCCN3CCN(c4ccnc(N)c4)S3(=O)=O)ccc12,352 nM
13,CCO/N=C/c1ccc(OCCC(C)CCN2CCN(c3ccnc(N)c3)C2=O)cc1 (configuration not stated),0.03 nM
14,O=C1CN(c2ccncc2)CCN1CCCCCOc1ccc(-c2ccc(Cl)cc2)cc1,180 nM
15,CCO/N=C(\CC)c1ccc(OCCCCCN2CCN(c3ccnc(N)c3)S2(=O)=O)cc1,554 nM
16,O=C1N(CCCCc2cc3cc(-c4ccc(Cl)cc4)ccc3o2)CCN1c1ccncc1,1100 nM
17,CCO/N=C1\CCCc2cc(OCCCCCN3CCN(c4ccnc(N)c4)S3(=O)=O)ccc21,309 nM
18,CCn1ncc2cc(OCCCCCN3CCN(c4ccnc(N)c4)S3(=O)=O)ccc21,> 1000 nM
19,O=C1C(=O)N(c2ccncc2)CCN1CCCCCOc1ccc(-c2ccc(Cl)cc2)cc1,> 1000 nM
20,O=C1N(CCCCCOc2ccc(-c3ccc(Cl)cc3)cc2)CCN1c1ccncc1 [1-[5-(4''-Chloro-biphenyl-4-yloxy)-pentyl]-3-pyridin-4-yl-imidazolidin-2-one],91 nM
21,"Cc1cc(CCCOc2c(C)cc(-c3noc(C(F)(F)F)n3)cc2C)on1 [3-(3,5-dimethyl-4-(3-(3-methylisoxazol-5-yl)propoxy)phenyl)-5-(trifluoromethyl)-1,2,4-oxadiazole]",> 100000 nM
22,NC(=O)c1ncn([C@@H]2O[C@H](CO)[C@@H](O)[C@H]2O)n1 [Tribavirin],> 100000 nM
